Consider twelve compounds from patent US10098949B2, “Adsorption of immunopotentiators to insoluble metal salts” (GlaxoSmithKline Biologicals SA, priority 2010, dated 2018).

Read-outs that look alike come from different tables or passages of the source.

Data set [1] is described as follows: Adsorption to aluminium hydroxide (Al—H) adjuvant, supernatant by HPLC. In kind it is physicochemical. To be noted: for % adsorption to Al—H: 10 mM histidine buffer, pH 6.5; for Adsorption Efficiency to aluminum hydroxide: 3 mg/mL aluminum hydroxide, 0.5 mg/mL compound, no buffer, room temperature overnight, RP-HPLC.
Data set [2] in a line: Model of in vivo desorption from Al—H. The conditions noted are these: 37° C., after 5 hours. Format: in vitro ADME.
The next data set relates to splenocytes. Description: Activity in splenocytes. Format: cell-based.
The nature of data set [3]: Solubility in water and in histidine buffer. Format: physicochemical. The conditions noted are these: pH 6.8.
A short description of data set [4]: Muscle levels 24 hours after intramuscular injection. In kind it is in vivo, Balb/C mice. To be noted: for level of compound in muscle: 24 hours after i.m. injection.
Data set [5] has as its system serogroup B meningococcus. Format: in vivo.
The next data set relates to serum cytokines. To be noted: in vivo.
The test system of another data set is human PBMCs. Nature of the data set: Activity in human PBMCs. Format: cell-based.
The target of another data set is T1, human TLR7 (Homo sapiens, UniProt Q9NYK1).
T1 construct: expressed in transfected cells; host or cells: HEK293
T1 sequence (Q9NYK1 27-1049): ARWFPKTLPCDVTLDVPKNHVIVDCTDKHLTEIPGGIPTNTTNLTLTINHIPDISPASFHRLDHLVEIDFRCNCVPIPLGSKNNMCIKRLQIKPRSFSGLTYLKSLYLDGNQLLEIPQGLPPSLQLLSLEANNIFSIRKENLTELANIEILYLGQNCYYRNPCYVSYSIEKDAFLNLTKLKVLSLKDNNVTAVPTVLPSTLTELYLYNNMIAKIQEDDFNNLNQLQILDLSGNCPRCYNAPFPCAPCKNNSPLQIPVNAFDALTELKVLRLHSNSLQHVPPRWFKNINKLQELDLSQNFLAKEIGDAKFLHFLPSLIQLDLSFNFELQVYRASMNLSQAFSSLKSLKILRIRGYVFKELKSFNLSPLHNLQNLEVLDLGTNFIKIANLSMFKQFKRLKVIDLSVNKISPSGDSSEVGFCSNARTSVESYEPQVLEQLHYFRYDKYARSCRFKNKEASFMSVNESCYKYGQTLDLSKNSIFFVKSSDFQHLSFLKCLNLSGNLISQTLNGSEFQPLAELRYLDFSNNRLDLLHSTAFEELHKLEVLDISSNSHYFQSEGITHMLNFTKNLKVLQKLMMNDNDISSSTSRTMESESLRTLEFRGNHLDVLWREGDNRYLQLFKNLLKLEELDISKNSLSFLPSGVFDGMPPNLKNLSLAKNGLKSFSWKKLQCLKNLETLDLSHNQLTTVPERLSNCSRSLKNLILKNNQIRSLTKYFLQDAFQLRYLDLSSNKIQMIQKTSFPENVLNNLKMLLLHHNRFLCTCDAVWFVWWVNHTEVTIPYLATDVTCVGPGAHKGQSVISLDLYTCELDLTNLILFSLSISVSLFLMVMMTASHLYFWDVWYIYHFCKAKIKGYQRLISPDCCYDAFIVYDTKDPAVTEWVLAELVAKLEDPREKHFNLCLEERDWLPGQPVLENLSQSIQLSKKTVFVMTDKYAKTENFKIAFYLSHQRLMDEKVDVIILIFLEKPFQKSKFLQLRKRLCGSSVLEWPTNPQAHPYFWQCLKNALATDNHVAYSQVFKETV
Nature of the data set: HEK293 human TLR7 NF-κB luciferase reporter assay. Format: cell-based. The conditions noted are these: HEK293 cells. Here is the method:
The activity of this compound is assessed in an assay using HEK293 cells which are stably transfected with human TLR7 and an NF-κB-driven luciferase reporter vector (pNifty-Luciferase). As a control assay, normal HEK293 transfected with pNifty-Luc are used. Cells are cultured in DMEM supplemented with 2 mM L-glutamine, 10% heart inactivated FBS, 1% penicillin and streptomycin, 2 μg/ml puromycin and 5 μg/ml of blasticidin. Bright-Glo™ Luciferase assay buffer and substrate are supplied by Promega. Cells are plated at 25,000 cells/well in 384-well plates in a final volume of 50 μl of media. Cells are allowed to adhere to the plates after overnight (18 hours) culture at 37° C. and 5% CO2. Serially-diluted experimental and positive control compounds are then dispensed to each well and incubated for 7 hours at 37° C. and 5% CO2. Cells stimulated with DMSO alone serve as negative controls. After the incubation, 30 μl of the pre-mix assay buffer and substrate buffer are added to each well according to manufacturer's instructions. The luminescence signal is read on a CLIPR machine with an integration time of 20 seconds per plate.

Data set [6] in a line: Association with Al—H particles by confocal microscopy and flow cytometry. In kind it is physicochemical. To be noted: confocal microscopy (compound 1) or flow cytometry (compounds 2, O).
Where [7] appears, read: SIF (simulated interstitial fluid).
[8] abbreviates: 5CVMB, CD-1 mice, days 0 & 14, (b) the agonist compound.

For `Cc1cc(OCCOCCOCCC(F)(F)P(=O)(O)O)ccc1CCc1cnc2c(N)nc3cc(CCC(=O)O)ccc3c2c1` [Compound 4], the “compound in supernatant after mixing with aluminium hydroxide (HPLC)” value in data set [1] was “neither compound is observed in the supernatant”. In addition, the “% adsorption to Al—H” value in data set [1] is reported as 96.0%. Also, the “proportion desorbed from Al—H” value in [2] (His buff) is 4%; in data set [2] (Plasma/His buff) it was 81%; in [2] (setting [7]), 100%.
For orientation: EC50 means the concentration needed to bring the measured effect to its halfway point. Take `CCOCc1nc2c(N)nc3ccccc3c2n1CCOCCOCCOCCP(=O)(O)O` [Compound 68, (2-(2-(2-(2-(4-amino-2-(ethoxymethyl)-1H-imidazo[4,5-c]quinolin-1-yl)ethoxy)ethoxy)ethoxy)ethyl)phosphonic Acid]: the EC50 result in the data set on splenocytes and in the data set on human PBMCs was “inactive” each time. Moreover, the “solubility in histidine buffer” value in data set [3] is recorded as “soluble”. The “level of compound in muscle” value in [4] (+Al—H) is recorded as “readily detected”; in data set [4] (without Al—H (free form)), “undetectable”. In addition, in data set [5] (in vivo), the “SBA titer at day 28” value is listed as 404. Moreover, in data set [1], the “% adsorption to Al—H” value is 94%. Moreover, the “systemic cytokines, effect of adsorption to Al—H” value (shortened to “systemic cytokines, effect”) in the data set on serum cytokines is on record as “generally reduced or unaffected”. For the same compound, the “activity compared to resiquimod (set to 100%)” value (“activity … (set to 100%)” below) on human TLR7 is listed as 75%.
Regarding `CCCCCNc1nc(N)nc(C)c1Cc1ccc(OCCOCCC(F)(F)P(=O)(O)O)cc1OC` [Compound 71, (3-(2-(4-((2-amino-4-methyl-6-(pentylamino)pyrimidin-5-yl)methyl)-3-methoxyphenoxy)ethoxy)-1,1-difluoropropyl)phosphonic Acid], the “activity … (set to 100%)” value with splenocytes stood at 239%; in the data set with human PBMCs it was 50%; on human TLR7, 53%. For the same compound, the EC50 was determined as 10.5 µM in the data set with splenocytes (Splenocyte, read-out: EC50) and 9.5 µM with human PBMCs (PBMC, read-out: EC50). Further, the “solubility in histidine buffer” value in data set [3] was “soluble”. The “level of compound in muscle” value is reported as “readily detected” in data set [4] (+Al—H) and “undetectable” in [4] (without Al—H (free form)). Also, the results for the “SBA titer at day 28” value in data set [5] (setting [8]) and in [5] (in vivo) were 65 and 1653, respectively. Moreover, the “% adsorption to Al—H” value in data set [1] is 85%. In addition, in the data set with serum cytokines, the “systemic cytokines, effect” value is “generally reduced or unaffected”.
`COCCOc1cc2c(nc(O)n2Cc2ccc(CP(=O)(O)O)cc2)c(N)n1` [Compound 67, (4-((4-amino-6-(2-methoxyethoxy)-2-oxo-2,3-dihydro-1H-imidazo[4,5-c]pyridin-1-yl)methyl)benzyl)phosphonic Acid]: the “activity … (set to 100%)” value with splenocytes came out at 142%; in the data set on human PBMCs, 59%; on human TLR7, 103%. The EC50 in the data set with splenocytes (Splenocyte, read-out: EC50) is 9.3 µM; in the data set with human PBMCs (PBMC, read-out: EC50), 0.8 µM. In addition, the “solubility in histidine buffer” value in data set [3] is reported as “soluble”. Moreover, the figures for the “level of compound in muscle” value in data set [4] (+Al—H) and in [4] (without Al—H (free form)) were “readily detected” and “undetectable”, respectively. The entries for the “SBA titer at day 28” value in [5] (setting [8]) and in data set [5] (in vivo) were 64 and 949, respectively. Moreover, the “% adsorption to Al—H” value in data set [1] is recorded as 82%. Further, the “systemic cytokines, effect” value in the data set on serum cytokines is “generally reduced or unaffected”.
Regarding `Cc1ccc2c(c1)nc(N)c1ncc(CCc3ccc(OP(=O)(O)O)cc3C)cc12` [Compound 102], the figures for the “Adsorption Efficiency to aluminum hydroxide” value in data set [1] and in data set [1] (listed as compound 102) were 85.1% and greater than 80%, respectively.
Regarding `Cc1cc(OCCCC(F)(F)P(=O)(O)O)ccc1CCc1cnc2c(N)nc3cc(CCC(=O)O)ccc3c2c1` [Compound 3], the “compound in supernatant after mixing with aluminium hydroxide (HPLC)” value in data set [1] is “neither compound is observed in the supernatant”. For the same compound, the “% adsorption to Al—H” value in data set [1] is 96.2%. The “proportion desorbed from Al—H” value in data set [2] (His buff) was 5%; in [2] (Plasma/His buff), 49%; in [2] (setting [7]), 100%.
Consider `Cc1ccc(CCc2cnc3c(N)nc4cc(C)ccc4c3c2)c(C)c1` [O, reference compound], for which, in data set [6], the “association with Al—H particles” value was “seen as a separate population”. Moreover, the “% adsorption to Al—H” value in data set [1] was “fails to adsorb”.
Turning to `CCCCCNc1nc(N)nc(C)c1Cc1ccc(CP(=O)(O)O)cc1` [Compound 69], the EC50 result with splenocytes and with human PBMCs was “inactive” each time. In data set [3], the “solubility in histidine buffer” value is recorded as “insoluble”. For the same compound, on human TLR7, the “activity … (set to 100%)” value is 36%.
`CCOCc1nc2c(N)nc3ccccc3c2n1CC(C)(C)O` [resiquimod, reference compound]: the “SBA titer at day 28” value in data set [5] (5CVMB, CD-1 mice, days 0 & 14, (e) resiquimod+Al—H, positive control) came to 1033.
`CCOCc1nc2c(N)nc3ccccc3c2n1CCOCCP(=O)(O)O` [Compound 7]: the EC50 result with splenocytes and with human PBMCs was “inactive” in each case. In addition, the “solubility in histidine buffer” value in [3] was “insoluble”. For the same compound, the “activity … (set to 100%)” value at human TLR7 stood at 55%.
As to `CCCCCNc1nc(N)nc(C)c1Cc1ccc(CP(=O)(O)O)cc1OC` [Compound 8], the “activity … (set to 100%)” value with splenocytes amounted to 184%; in the data set on human PBMCs, 50%; on human TLR7, 81%. Further, the concentration for a half-maximal effect (EC50) with splenocytes (Splenocyte, read-out: EC50) was determined as 3.1 µM; in the data set on human PBMCs (PBMC, read-out: EC50) it was 10.4 µM. In addition, the “solubility in histidine buffer” value in data set [3] is on record as “insoluble”.
For the compound `COCCOc1nc(N)c2nc(O)n(Cc3ccc(CP(=O)(O)O)cc3)c2n1` [Compound 6, (4-((6-amino-2-(2-methoxyethoxy)-8-oxo-7H-purin-9(8H)-yl)methyl)benzyl)phosphonic Acid], the “activity … (set to 100%)” value with splenocytes was found to be 210%; with human PBMCs it was 35%; on human TLR7 it was 93%. The EC50 with splenocytes (Splenocyte, read-out: EC50) was 0.98 µM; with human PBMCs (PBMC, read-out: EC50) it was 1 µM. Also, the “solubility in histidine buffer” value in [3] is “soluble”. Also, the “level of compound in muscle” value in data set [4] (without Al—H (free form)) is given as “undetectable”. Also, the “compound in inguinal lymph nodes or liver” value in data set [4] (after 24 hours) was “could not be detected”. Besides, the results for the “SBA titer at day 28” value in data set [5] (setting [8]) and in data set [5] (in vivo) were 282 and 4016, respectively.
